# Laboratory results from patent US9970947B2, “Fluorescent probe” (MUSC FOUNDATION FOR RESEARCH DEVELOPMENT, priority 2016, dated 2018).
# pIC50: −log10 of the molar value. Entries after “also recorded” stand apart in the source; their conditions may differ.
# Tests used:
# [1] = Absorption, excitation and emission spectra of mitoferrofluor; assay type: physicochemical
# [2] = Cell-free MFF fluorescence as a function of Fe2+ concentration; assay type: physicochemical
# Method: (§1) MFF (0-10 μM) was dissolved in medium at the presumed intramitochondrial pH (pH 8.0, 37° C.) (FIG. 2, left panel). Fluorescence of MFF (1 μM) was measured as a function of increasing ferrous ammonium sulfate (Fe^2+) and ferric chloride (Fe^3+) concentration from freshly prepared stock solutions (1 mM). Fluorescence intensity is shown in arbitrary units (a.u.). (FIG. 2, right panel).
# [3] = Cell-free MFF fluorescence as a function of Fe3+ concentration; assay type: physicochemical; conditions: cell free medium
# Method: as §1
# [4] = test system: mitochondria of cultured rat hepatocytes; test: Mitochondrial accumulation and retention of probe after depolarization, confocal imaging; assay type: cell-based; conditions: for retention by mitochondria after depolarization: rat hepatocytes, CCCP 10 μM, oligomycin 10 μg/ml, myxothiazol 10 μM
# Method: (§2) Rhodamine 123 (Rh123) and MitoTracker Green (MTG) were obtained from Molecular Probes. Primary rat hepatocytes were isolated from overnight-fasted male Sprague-Dawley rats (200-250 g) by collagenase perfusion. Hepatocytes were plated on Type 1 collagen-coated MatTek dishes at a density of 300,000 cells per well and cultured overnight in Waymouth's MB-742/1 growth medium containing 27 mM NaHCO3, 2 mM L-glutamine, 10% fetal calf serum, 100 nM insulin and 10 nM dexamethasone, pH 7.4 at 37° C. in 5% CO2/air.
# (§3) Confocal images of hepatocytes were taken with a Zeiss LSM 510 inverted laser scanning confocal microscope (Carl Zeiss, Germany) using a 63×oil immersion objective.
# Overnight-cultured rat hepatocytes were loaded with MFF (1 μM for 20 min), washed and incubated for 60 min.
# Overnight-cultured rat hepatocytes were loaded with MFF and MTG (both 1 μM for 20 min), washed and incubated for 60 min. Cells were then incubated with 5 mM fructose and imaged “BEFORE” and “AFTER” addition of CCCP, oligomycin and myxothiazol. […] MFF fluorescence changed essentially identically to MTG consistent with covalent labeling of mitochondrial proteins by MFF.
# [5] = test system: mitochondrial chelatable Fe^2+ in cultured rat hepatocytes; test: Mitoferrofluor quenching after mitochondrial Fe2+ uptake; assay type: cell-based
# Method: as §2, §3
# Overnight-cultured rat hepatocytes were loaded with MFF (1 μM for 20 min), washed out and incubated for 60 min. Rh123 (0.5 μM for 20 min) was then loaded. Fe^2+ was added as ferrous ammonium sulfate (10 mM). Fe^2+ addition quenched MFF fluorescence by ˜72%.
# [6] = test system: mitochondrial chelatable Fe^2+ in cultured rat hepatocytes; test: Mitoferrofluor fluorescence quenching after lysosomal iron release with bafilomycin A1; assay type: cell-based; conditions: 120 min after bafilomycin A1, vs vehicle (DMSO)
# Method: as §2, §3
# Overnight-cultured rat hepatocytes were loaded with MFF and then rhodamine 123, as described in Example 6. […] Panel C represents a quantitative analysis of 10 random fields (*p<0.05 vs vehicle, n=3).
fluorescence emission peak [1] [nm],fluorescence excitation peak [1] [nm],extinction coefficient ([1]; at 566 nm),"pIC50 ([2]; MFF 1 μM, pH 8.0, 37° C., read-out: IC50 of Fe^2+ quenching of MFF fluorescence)",SMILES,quenching of MFF fluorescence by Fe^2+ ([2]; cell free medium),quenching of MFF fluorescence by Fe^3+ [3],accumulation into mitochondria ([4]; cultured rat hepatocytes),retention by mitochondria after depolarization [4],"decrease of intramitochondrial MFF fluorescence ([5]; MFF-loaded hepatocytes, excess extracellular Fe^2+ added) [%]","quenching of MFF fluorescence by Fe^2+ addition ([5]; rat hepatocytes, MFF 1 μM for 20 min, ferrous ammonium sulfate 10 mM) [%]",quenching of mitochondrial MFF fluorescence after bafilomycin A1 [6]
598,554,"40,400 cm^−1/M",5.70 to 6.00,"CCN(CC)c1ccc2c(-c3ccccc3C(=O)OCCCOc3cc(OCCCBr)cc(C(=O)Nc4cc5cccnc5c5ncccc45)c3)c3ccc(=[N+](CC)CC)cc-3oc2c1.[Br-] [MFF, N-(9-(2-((3-(3-((1,10-phenanthrolin-5-yl)carbamoyl)-5-(3-bromopropoxy)phenoxy)propoxy)carbonyl)phenyl)-6-(diethylamino)-3H-xanthen-3-ylidene)-N-ethylethanaminium bromide]",strongly and stoichiometrically quenched by Fe^2+,not by Fe^3+; also recorded: not Fe^3+ quenched,selectively accumulated into mitochondria,retained by mitochondria; also recorded: MFF fluorescence was retained; also recorded: retained MFF to the same extent as MTG,~80,~72,became quenched; also recorded: quenched mitochondrial MFF fluorescence
,,,,"CN1/C(=C/C=C/c2n(Cc3ccc(CCl)cc3)c3cc(Cl)c(Cl)cc3[n+]2Cc2ccc(CCl)cc2)Oc2ccccc21 [MTG, reference compound]",,,,some release of MTG into the cytosol,,,
